Results from paper PMC11778240, “Synthesis and preclinical evaluation of tigilanol tiglate analogs as latency-reversing agents for the eradication of HIV” (Science Advances, 2025).

How the values were obtained:
[1] = tested on: NF-κB pathway; test: NF-κB activation assay, A549 cells with SEAP reporter; type: cell-based, Human; conditions: for NF-κB activation (optical density, 630 nm): 24 hours after dosing; for NF-κB activation (optical density, 630 nm) / NF-κB activation in words: A549 cells; for NF-κB activation in words: 50 and/or 500 nM
Text: As a high-throughput method of screening compounds for their ability to get into cells and activate immunological pathways related to HIV latency reversal ([46], [70]), we conducted an NF-κB reporter assay using A549 cells stably integrated with a secreted embryonic alkaline phosphatase reporter under the control of a promoter fused to five NF-κB binding sites (Fig. 7B) ([48], [70], [71]).
Human A549-Dual™ Cells supplied by InvivoGen (Cat. code a549d-nfis) and CHO-K1 cells were passaged when about 90% confluency was reached (approximately every three days). With each passage, media was aspirated from the cell layer, which was then washed with PBS. Following aspiration of the PBS, cells were detached from the culture flask with 0.25% GibcoTM Trypsin-EDTA and transferred to a 50 mL conical, which was volumed up with complete pre-warmed DMEM (4.5 g/L glucose, 10% FBS, and 1% Pen-Strep-Glutamine (100 X, 50 mg/mL)) or Ham's F-12K (Kaighn's) Medium supplemented with 10% FBS and 1% Pen-Strep (100 X, 50 mg/mL).
This conical was spun down at 1800 rpm for 3 minutes, the supernatant was removed, and cells were resuspended in their respective fresh, pre-warmed media. To count cells, 10 μL of resuspended cells were added to a sterile microcentrifuge tube and mixed with 10 μL of trypan blue after which 10 μL of the mixture was pipetted into a Countess chamber slide. A Countess™ 3 Automated Cell Counter was subsequently utilized to determine cell viability and concentration.
1 x 10^6 cells were seeded with each passage into a T75 culture flask, and cells were incubated at […]
Human A549 lung carcinoma cells (InvivoGen Cat. code a549d-nfis), stably integrated with a secreted embryonic alkaline phosphatase (SEAP) reporter, allow for the activity of the NF-κB pathway to be monitored. The SEAP reporter is under control of the interferon β (IFN-β) minimal promoter, which is fused to five NF-κB binding sites.
5 × 10^4 A549 cells were plated on Corning® 96 Well TC-Treated Microplates (CLS3595) in 180 μl of pre-warmed DMEM (4.5 g/L glucose, 10% heat-inactivated FBS (30 min at 56 ℃), and 1% Pen-Strep-Glutamine (100 X, 50 mg/mL)). Note that if cells were grown in media containing FBS that is not heat-inactivated, media will contain alkaline phosphatase. In this case, all supernatant must thoroughly be aspirated from the cell pellet obtained after centrifugation before resuspending cells in media containing heat inactivated FBS for plating. Following incubation at 37 °C in 5% CO2 for approximately 24 hours to allow for cell adherence onto the 96 well plate, 1.8 μL of each compound dissolved in DMSO was added in quadruplicate to their respective wells to achieve a final compound concentration of 1500 nM, 500 nM, or 50 nM. 1.8 μL of DMSO was added to wells as negative controls while wells treated with EBC-46 served as positive controls. 24 hours following compound addition, 180 μL of QUANTI-BlueTM Solution (InvivoGen Cat. code rep-qbs)- medium containing QB buffer and QB Reagent for detection and quantification of alkaline phosphatase- were added into wells on a new clear flat-bottom 96-well plate. 20 μL of supernatant of either SEAP-expressing cells incubated with compound or SEAP-expressing cells incubated with DMSO only were added to the wells in the new 96-well plate containing QUANTI-BlueTM Solution. Supernatant and QUANTI-BlueTM Solution were incubated at 37 °C in 5% CO2 for approximately an hour and a half. Following incubation, optical density (OD) at 630 nm was measured for each well using a BioTek Synergy H1 microplate reader under normal read speed and with a delay of 100 msec.

[2] = tested on: J-Lat clone 10.6 cells; test: J-Lat HIV latency reversal assay (GFP expression); type: cell-based, Human; conditions: J-Lat 10.6, 48 hours; for HIV latency reversal in words: ascending concentrations
Text: Having shown that our lead compounds bind cell-free PKC isoforms, enter cells, translocate PKC-GFP fusion proteins, and activate NF-κB transcription factors, we next set out to determine whether our analogs were capable of reversing HIV from latency. We performed in vitro assays using T lymphocyte J-Lat clone 10.6, which contains a latent near full-length replication-incompetent integrated HIV DNA genome ([72]). J-Lat 10.6 lacks two viral genes, env and nef, which encode for the envelope protein and an accessory protein, respectively, and thus cannot initiate a spreading HIV infection. The integrated HIV provirus also encodes a GFP reporter gene, allowing latency reversal to be measured by quantification of GFP expression (fig. S1). […] In this latency reversal assay, we quantified GFP expression 48 hours after compound addition and observed bryostatin 1 to be maximally effective at concentrations of 40 nM or higher with latency reversal in 12% of cells (Fig. 8). Given the efficacy of bryostatin 1 as an LRA ([73], [74]), EBC-46 and many of its analogs tested in this J-Lat assay induced latency reversal in >90% of cells. […] SUW427, an esterase-releasable prodrug of EBC-46, also performed similarly to EBC-46 with a maximum efficacy of latency reversal in >90% of cells at a dose of 250 nM. […] The gradual release of EBC-46 from its prodrug form provides an alternative mode of administration that avoids the bolus effect associated with rapid drug administration ([17]). […] This is consistent with its lack of activity in the NF-κB activation assay and its design as a negative control as it is structurally similar to EBC-46 but unable to bind to the C1 domain of PKC at the concentrations used in this assay as it lacks a complete pharmacophore.
HIV latency reversal in-vitro assay
Human T Lymphocyte J-Lat Full Length Cell Line 10.6 (cat #9849) was obtained through the NIH HIV Reagent Program, Division of AIDS, NIAID, NIH and was contributed to the NIH HIV Reagent Program by Dr. Eric Verdin (70). J-Lat 10.6 cells were plated at 5 × 10^5 cells in 180 μL of RF10 media consisting of RPMI media supplemented with 1% Penicillin/Streptomycin and 10% Fetal Bovine Serum (FBS) in 96 -well U -bottom plates. J -Lat 10.6 cells were then stimulated for 48 hr by adding 20 μL of newly designed and synthesized tigilanol tiglate analogs, PKC modulators (bryostatin 1) as our positive control or med ia only (mock) as our negative control. Our negative control was RF10 media as the tigilanol tiglate analogs were freshly diluted with RF10 prior to plating. The final volume was 200 μL per well. Experiments were performed in three independent biological replicates, each completed in technical duplicates (n = 6). After 48 hr stimulation, 96 - well U -bottom plates were centrifuged at 296 RCF for 7 minutes to pellet cells, which were resusp ended in 200 μL of freshly prepared 2% paraformaldehyde (PFA) in PBS. GF P expression was measured 24 -hours post -fixation using the FITC channel on a LSR Fortessa (BD Biosciences) flow cytometer. Data analysis was conducted with FlowJo software version 10.8.1.

SMILES | NF-κB activation, times the basal level (DMSO control) ([1]; 50 nM, 24 hours) | NF-κB activation (optical density, 630 nm) ([1]; 50 nM) | NF-κB activation (optical density, 630 nm) ([1]; 500 nM) | NF-κB activation in words ([1]; 24 hours) | latency reversal, % of cells ([2]; 40 nM) | HIV latency reversal in words [2] | maximal latency reversal, % of cells ([2]; 250 nM)
C/C=C(\C)C(=O)O[C@@H]1[C@@H](C)[C@@]2(O)[C@H]([C@@H]3C(C)(C)[C@]13OC(=O)Cc1cccc3ccccc13)[C@@H]1O[C@]1(CO)[C@@H](O)[C@]1(O)C(=O)C(C)=C[C@H]12 [SUW431] | approximately three | 0.74 optical density, 630 nm | 0.65 optical density, 630 nm | strong activation of NF-κB at higher concentrations but with an inverse dose response | 90 % of cells | effectively activates latent HIV at substantially lower concentrations than EBC-46 | –
C/C=C(\C)C(=O)O[C@@H]1[C@@H](C)[C@]2(O)[C@@H]3C=C(C)C(=O)[C@@]3(O)[C@H](O)C(CO)=C[C@H]2[C@@H]2C(C)(C)[C@]12OC(=O)[C@@H](C)CC [SUW400] | – | 0.41 optical density, 630 nm | 0.67 optical density, 630 nm | comparable activity to EBC-46 at 50 and 500 nM | – | – | > 90 % of cells
CC[C@H](C)C(=O)O[C@@]12[C@H](OC(C)(C)C)[C@@H](C)[C@@]3(O)[C@H]([C@@H]1C2(C)C)[C@@H]1O[C@]1(CO)[C@@H](O)[C@]1(O)C(=O)C(C)=C[C@H]13 [SUW430] | – | 0.30 optical density, 630 nm | 0.67 optical density, 630 nm | performed comparably to EBC-46 at both concentrations | – | required a higher dose than EBC-46 before we detected reversal activity | –
CC=C(C)C(=O)OC1C(C)C2(O)C(C3OC3(CO)CC3(O)C(=O)C(C)=CC32)C2C(C)(C)C12OC(=O)C(C)CC (stereo not drawn) [SUW403] | – | 0.39 optical density, 630 nm | 0.67 optical density, 630 nm | comparable activity to EBC-46 at 50 and 500 nM | – | required a higher dose than EBC-46 before we detected reversal activity | –
